Results published in the supplement of paper PMC10307832.

What was measured:
Test in all cases: relative viability (nuclei count vs DMSO), 5 days (fraction); higher = more cells survive
[1] = compound: COC1=CC=C(C=C1)CN2C=CC3=C2C=C(C=C3)C(=O)NO
Outline: (§1)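 Vehicle-anchored 1536-well plates of lung cancer cell lines, held overnight at 37 °C, were pinned with five library-drug doses (not always all listed) spaced by √10. No medium change followed over the next 5 days, after which the cells were fixed, permeabilised and Hoechst-stained together and imaged at 4×. Nuclei were counted with MetaXpress, and viability is treated-well nuclei over vehicle-well nuclei, taken as a median across plates. Plates passed with control CV below 25% and at least one doubling.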

Veliparib = compound: C[C@]1(c2nc3c(C(N)=O)cccc3[nH]2)CCCN1 [Veliparib]
Outline: as §1

[2] = compound: COC1=CC=C(C=C1)CN2C=CC3=C2C=C(C=C3)C(=O)NO + CC(=O)Nc1cccc(-n2c(=O)n(C3CC3)c(=O)c3c(Nc4ccc(I)cc4F)n(C)c(=O)c(C)c32)c1 [Trametinib] (partner 0.02 µM)
Outline: (§2)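 The day after seeding in 1536-well plates, lung cancer cell lines were treated by pin tool with a single drug, or with a fixed anchor-drug dose together with five library-drug doses (not always all listed) in √10 steps. After 5 days, a combined fix-and-stain solution (final 0.05% Triton X-100, 1% formaldehyde, 1 ug/ml Hoechst) was added. Nuclei counted on 4× images gave relative viability as treated counts over vehicle counts, reported as the median of duplicate plates.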

Veliparib + Navitoclax = compound: C[C@]1(c2nc3c(C(N)=O)cccc3[nH]2)CCCN1 [Veliparib] + CC1(C)CCC(c2ccc(Cl)cc2)=C(CN2CCN(c3ccc(C(=O)NS(=O)(=O)c4ccc(N[C@H](CCN5CCOCC5)CSc5ccccc5)c(S(=O)(=O)C(F)(F)F)c4)cc3)CC2)C1 [Navitoclax] (partner 0.5 µM)
Outline: as §2

Cell Line	relative viability ([1]; 0.08 µM)	relative viability ([1]; 0.253 µM)	relative viability ([1]; 0.8 µM)	relative viability ([1]; 2.53 µM)	relative viability ([1]; 8 µM)	relative viability (Veliparib; 0.02 µM)	relative viability (Veliparib; 0.06325 µM)	relative viability (Veliparib; 0.2 µM)	relative viability (Veliparib; 0.6325 µM)	relative viability (Veliparib; 2 µM)	relative viability ([2]; first compound 0.08 µM)	relative viability ([2]; first compound 0.253 µM)	relative viability ([2]; first compound 0.8 µM)	relative viability ([2]; first compound 2.53 µM)	relative viability ([2]; first compound 8 µM)	relative viability (Veliparib + Navitoclax; first compound 0.02 µM)	relative viability (Veliparib + Navitoclax; first compound 0.06325 µM)	relative viability (Veliparib + Navitoclax; first compound 0.2 µM)	relative viability (Veliparib + Navitoclax; first compound 0.6325 µM)	relative viability (Veliparib + Navitoclax; first compound 2 µM)
NCI-H23	0.776	1.06	1.09	0.968	0.721	0.89	0.77	0.948	0.951	0.96	0.298	0.445	0.397	0.381	0.283	0.884	0.772	0.828	0.81	0.791
SK-MES-1	1.07	1.02	0.988	1.03	0.997	1.03	0.939	0.977	0.961	1.03	0.549	0.551	0.549	0.586	0.575	1.27	1.16	1.3	1.06	1.26
NCI-H1651	0.918	0.963	0.969	0.91	0.926	0.977	0.906	0.96	0.882	0.915	0.798	0.917	0.867	0.787	0.828	1.04	1.05	1.1	1.01	0.916
SK-LU-1	0.974	0.997	1.02	1.04	0.966	1.04	1.06	1.06	0.98	1.01	0.347	0.537	0.51	0.579	0.447	0.985	1.05	0.959	0.804	0.793
NCI-H727	0.853	0.941	0.899	0.983	0.927	0.941	0.913	1.06	0.897	1	0.418	0.383	0.377	0.37	0.371	0.4	0.492	0.504	0.369	0.467
NCI-H3122	0.971	0.984	0.954	0.989	0.955	1	1.01	0.974	0.957	1	0.276	0.13	0.225	0.217	0.222	0.982	0.998	0.998	1	1.01
HOP-62	0.865	1.01	0.992	1.03	0.958	0.934	0.909	0.963	0.976	1.02	0.362	0.399	0.371	0.391	0.375	1.05	1	1.06	0.937	1.03
LC-2-ad	0.937	0.977	1.04	0.976	0.963	0.608	0.944	0.977	0.941	0.867	0.841	0.899	0.882	0.938	0.991	–	0.446	0.405	0.312	0.497
EKVX	0.782	1.02	0.991	1.05	0.957	0.744	0.93	0.94	1	0.972	–	0.28	0.345	0.366	0.305	0.814	0.974	0.884	0.891	0.819
LU99A	–	0.932	1.11	0.916	0.932	0.984	0.902	0.771	0.863	0.994	–	0.61	0.553	0.548	0.455	0.761	0.779	0.832	0.657	0.863
NCI-H520	0.708	1.04	1.03	1.04	0.97	0.977	0.975	0.97	0.87	0.993	0.426	0.723	0.74	0.555	0.723	1.16	1.02	1.17	1.04	1.07
COR-L23	0.874	0.992	1	1.01	0.933	0.998	0.872	0.924	0.952	1.03	0.5	0.617	0.627	0.615	0.522	1.15	0.957	0.899	0.86	0.999
NCI-H1437	0.912	0.978	1.05	1.06	1.05	0.815	0.958	0.971	0.972	0.963	0.452	0.494	0.538	0.66	0.57	1.02	0.997	1.13	1.08	1.05
HARA	–	1.02	1.08	0.89	0.884	0.858	0.939	0.955	0.979	0.915	–	0.607	0.668	0.849	0.705	1.17	1.09	1.1	1.08	1.15
NCI-H1666	0.891	0.99	1.09	1.03	1.03	0.943	0.976	0.981	0.876	0.937	0.835	0.881	0.849	0.934	0.793	1.03	0.696	0.932	0.8	1.03
CAL-12T	1.02	0.889	1.04	1.05	0.891	0.918	0.926	0.981	0.9	1.02	0.387	0.347	0.33	0.335	0.301	1.38	1.03	1.3	1.2	1.32
